From patent US20210255184A1, “Biosensor Device and Methods” (The New Zealand Institute for Plant and Food Research …, priority 2018, published 2021)

Biological target: T1, Or10a/Orco (Drosophila melanogaster, UniProt Q9VYZ1)
T1 construct: his-tag; made in house; host or cells: baculovirus-infected Sf9 cells
T1 sequence (Q9VYZ1 1-406): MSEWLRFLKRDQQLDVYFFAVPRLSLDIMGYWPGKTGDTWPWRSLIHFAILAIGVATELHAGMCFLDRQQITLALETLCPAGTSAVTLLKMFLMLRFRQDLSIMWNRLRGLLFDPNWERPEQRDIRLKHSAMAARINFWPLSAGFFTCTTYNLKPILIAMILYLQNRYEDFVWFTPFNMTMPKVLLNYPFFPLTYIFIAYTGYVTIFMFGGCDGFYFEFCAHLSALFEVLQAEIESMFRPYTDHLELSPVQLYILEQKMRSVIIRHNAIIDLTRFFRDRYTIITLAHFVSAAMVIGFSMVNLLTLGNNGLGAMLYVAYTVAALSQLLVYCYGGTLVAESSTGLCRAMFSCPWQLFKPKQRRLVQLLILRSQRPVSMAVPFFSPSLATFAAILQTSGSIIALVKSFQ
T1 sequence (Q9VNB5 1-486 partner): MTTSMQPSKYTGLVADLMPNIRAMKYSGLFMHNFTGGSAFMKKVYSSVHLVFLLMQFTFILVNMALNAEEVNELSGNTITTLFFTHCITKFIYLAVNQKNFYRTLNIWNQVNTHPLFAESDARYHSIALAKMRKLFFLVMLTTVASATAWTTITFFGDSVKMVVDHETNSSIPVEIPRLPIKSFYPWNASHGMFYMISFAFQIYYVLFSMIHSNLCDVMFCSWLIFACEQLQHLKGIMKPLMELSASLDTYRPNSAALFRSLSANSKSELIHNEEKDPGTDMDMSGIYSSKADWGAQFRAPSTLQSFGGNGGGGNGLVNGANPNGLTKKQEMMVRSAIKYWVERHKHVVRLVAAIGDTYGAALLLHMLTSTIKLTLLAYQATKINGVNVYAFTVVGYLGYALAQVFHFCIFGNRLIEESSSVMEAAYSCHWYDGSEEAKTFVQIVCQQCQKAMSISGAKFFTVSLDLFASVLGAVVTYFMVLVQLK
Assay: GFET sensor, Or10a/Orco liposomes
Format: biochemical
Details: Table 4, GFET
From the text: The GFETs used in this study were fabricated from a predeposited graphene film on 300 nm SiO2 coated Si substrate from ACS Suppliers, USA. The FETs consist of a channel with dimensions of 100 μm width and […]. The key steps involved in fabricating the GFET on a Si/SiO2 substrate is schematically illustrated in FIG. 12. The source and drain electrodes were defined by photolithography and formed by successive deposition of Cr and Au. Both the drain and source electrodes were then encapsulated using AZ1518 photoresist and a channel with dimensions of 100 μm width and 10 μm length was left open to the environment for gating and functionalisation.
The OR liposomes were functionalised onto the graphene surface via a non-covalent route using PBASE as the molecular linker as shown in FIG. 13. The OR liposomes were diluted at 1:10 ratio with 1×PBS (pH7.4). The cleaned GFETs were immersed in 1 mM PBASE solution in methanol for 1 hour. […]
Electrical sensor measurements of OR liposome functionalised GFETs were carried out using top liquid gate morphology as shown in the schematic in FIG. 15 (a). […] The transfer characteristics of the different graphene FETs (FIG. 15 (b) to (g)) were measured at Vds=1 mV while the liquid gate voltage Vlg was swept from −0.5 V to 1 V with an interval of 20 mV. […]

For `COC(=O)c1ccccc1O` [methyl salicylate], the “Detection Range” value was 10^−13-10^−8 M and the EC50 was 2.07 pM.
